Measurements as given in patent US20250154212A1, “METHOD OF DISRUPTING MEMORY AND LIPOPEPTIDE FOR USE IN SUCH METHOD” (The Research Foundation for The State University of New York, priority 2023, published 2025).
“Also recorded” adds a separate entry of the source. Where no end group is shown, it is not given here. The star is where a group is joined. Myristoyl = CCCCCCCCCCCCCC(=O)*

System: spatial long-term memory
Assay: Active place avoidance, intrahippocampal injection, wild-type mice
Assay type: in vivo, mouse
Settings: for spatial memory retention (time to first enter shock zone), 3-day memory: 5 nmol in 0.5 μl per hippocampus 1 day after conditioning; for learning and retention of a new memory (place avoidance in Context B): conditioned 2 days after injection, retention 3 days later
Protocol: For spatial long-term memory experiments, we adapted the approach used in Garcia-Osta et al. (82). Mice were ˜12-weeks old at surgery. Briefly, to implant the injection cannula hardware, mice were anesthetized by an intraperitoneal (i.p.) injection of a mixture of dexmedetomidine ([…] body weight) and ketamine (28 mg/kg body weight), and mounted in a Kopf stereotaxic frame (Tujunga, CA). The tips of guide cannula (Plastics One, Roanoke, VA; Part Numbers: C235GS-5-2.0) were targeted above the injection target in the dorsal hippocampus (AP-1.94 mm; ML±1.00 mm; DV-0.90 mm). The other injection hardware (Part Numbers: C235DCs-5, 303DC/1; cannula dummy, cannula cap, respectively) was assembled, and antisedan (0.65 mg/kg body weight i.p.) was administered to reverse the sedation at the end of surgery.
Three to four weeks after surgery, the animals received active place avoidance training. Before testing the effect of the drug injection on place avoidance, the animals received a bilateral injection of vehicle (PBS [pH 7.4] 0.5 μl/side) and were left in the home cage to habituate to the procedure. Depending on the experimental design, injection of vehicle or drug, either ζ-stat or K-ZAP (5 nmol in 0.5 μl PBS/side), is 1 day or 4 weeks after the training session. During the injection, the animals were restrained, the cannula cap and dummy removed, and the injection needle (Plastics One, Roanoke, VA; Part Numbers: C235IS-5) inserted into the guide cannula so that it protruded from the end of the guide by 0.5 mm. The other end of the needle was connected to a 10 μl Hamilton syringe via Tygon tubing. The drug or vehicle was infused for 1 min, and after the infusion the needle was left in place for 5 min before removal. The animals were then returned to their home cages until the memory retention tests that were conducted 2 days later.
Active place avoidance was conducted with a commercial computer-controlled system (Bio-Signal Group, Acton, MA). The mouse was placed on a 40-cm diameter circular arena rotating at 1 rpm. The specialized software, Tracker (Bio-Signal Group, Acton, MA), was used to detect the animal's position 30 times per second by video tracking from an overhead camera. A clear wall made from polyethylene terephthalate glycol-modified (PET-G) was placed on the arena to prevent the animal from jumping off the elevated arena surface. A 5-pole shock grid was placed on the rotating arena, and the shock was scrambled across the 5-poles when the mouse entered the shock zone. All experiments used the “Room+Arena−” task variant that challenges the mouse on the rotating arena to avoid a shock zone that was a stationary 60° sector (7). Every 33 ms, the software determined the mouse's position, whether it was in the shock zone, and whether to deliver shock. After the animal enters the shock zone for 500 ms, a constant current foot-shock (60 Hz, 500 ms) was delivered and repeated with the interval of 1500 ms until the mouse left the shock zone. The shock intensity was 0.2 or 0.3 mA, which was the minimum amplitude to elicit flinch or escape responses. The animal was forced to actively avoid the designated shock zone because the arena rotation periodically transported it into the shock area.
The tracked animal positions with timestamps were analyzed offline (TrackAnalysis, Bio-Signal Group, Acton, MA) to extract several end-point measures. The time to first enter the shock zone estimates ability to avoid shock and was taken as an index of between-session memory. The number of entrances within one trial was taken as another index to examine the animal learning curve throughout all training trials. A pretraining habituation period on the apparatus equivalent in time to a training session, but without shock, was provided.
The training schedule was as follows: 2 h after a 30-min pretraining habituation, the animals received three 30-min training trials, with an intertrial interval of 2 h. […]

O=S(=O)(O)c1cc(O)c2c(S(=O)(=O)O)cc(S(=O)(=O)O)cc2c1 [ζ-stat, 1-naphthol-3,6,8-trisulphonic acid]
spatial memory retention (time to first enter shock zone), 3-day memory (tested 2 days post-injection): persistent loss of retention
spatial memory retention (time to first enter shock zone), 3-day memory (tested 2 days post-injection, listed as z-stat): disrupts spatial memory retention; also recorded: disrupt memory retention for the established memory
learning and retention of a new memory (place avoidance in Context B): learn to avoid and remember a new second location as well as the mice that had received only vehicle
learning and retention of a new memory (place avoidance in Context B) (listed as z-stat): do not disrupt learning or retention of a new memory

myr-N-FVRNSLERRSVRMKRPS-C (Myristoyl-FVRNSLERRSVRMKRPS) [K-ZAP]
spatial memory retention (time to first enter shock zone), 3-day memory (tested 2 days post-injection): disrupts established spatial long-term memory retention; also recorded: loss of memory retention
remote spatial memory retention, 30-day memory (5 nmol in 0.5 μl/side injected 4 weeks after training, tested 2 days post-injection): disrupts remote spatial memory; also recorded: loss of memory retention 30 days post-training
